Results: ChEMBL document CHEMBL1123054, “Synthesis and dopamine autoreceptor activity of a 5-(methylmercapto)methyl-substituted derivative of (+/-)-3-PPP (3-(3-hydroxyphenyl)-1-n-propylpiperidine)” (J Med Chem, 1985)

Experiments:
[1] = tested on: Mus musculus; test: Dopa accumulation induced by GBL was measured in mouse after subcutaneous administration of 32 umol/kg of compound; assay type: functional
[2] = species: Rattus norvegicus; test: In vitro inhibitory activity was determined against dopamine synthesis in rat striatal synaptosomes; conditions: Brain
[3] = tested on: Mus musculus; test: Dose required to produce convulsions in mouse was determined after subcutaneously administration; assay type: functional
[4] = species: Rattus norvegicus; test: In vitro inhibitory activity was determined against dopamine synthesis in rat striatal synaptosomes; conditions: Brain; remark: listed apart in the source

SMILES | Accumulation [1] [%] | IC50 [2] [µM] | Dose [3] [µM/kg] | IC50 [4] [µM]
CCCN1C[C@H](CSC)C[C@H](c2cccc(O)c2)C1 | 89 | 45 | 100 | –
CCCN1CCCC(c2cccc(O)c2)C1 (stereo not given) | 60 | – | – | 55
